Several values for one entry are separate records, joined by “and”; a condition that tells them apart may be missing. Identical values can stand only once. Like-named read-outs stand apart in the source and are kept apart here. Marks after values point to notes of the source that are not given here.
Test: Stereoselective pharmacokinetics in rat plasma
Assay type: in vivo, Sprague–Dawley rats
Conditions: for MRT last: read-out: MRT(0–t); for chiral transformation between enantiomers: single enantiomers orally administered (75 mg/kg)
Experimental: The pharmacokinetic data were optimally characterized by a noncompartmental model. The mean concentration-time profiles for the farrerol enantiomers are illustrated in Figure 3, along with the corresponding key pharmacokinetic parameters presented in Table 2.
Twenty-five rats were randomly divided into five experimental groups (A, B, C, D, and E). Groups A and B received farrerol racemate via intragastric administration at doses of 150 mg/kg and 75 mg/kg, respectively. Group C was administered 4 mg/kg of farrerol racemate through caudal intravenous administration. […] Blood samples (300 μL) were obtained from the orbital venous plexus into heparinized tubes at various time points: 0.25, 0.5, 1, 2, 3, 5, 7, 9, 12, and 24 h following gavage administration, and at 0.083, 0.167, 0.25, 0.5, 1, 1.5, 2, 2.5, 3, and 5 h post-intravenous administration. Plasma was separated by centrifugation (3000 rpm, 10 min) and stored at −80 °C until analysis.
A total of 150 μL of plasma and 50 μL of the internal standard solution were added to a 1.5 mL EP tube and mixed using a vortex for 30 s. Subsequently, 500 μL of ether was introduced, and the mixture was vortexed for 5 min. Following centrifugation at 10,000 rpm for 10 min, the resulting organic layer was carefully transferred to a separate tube. Each sample underwent two extraction processes. The resulting ether layer was then evaporated to dryness using a continuous air stream at room temperature. A 250 μL aliquot of methanol was employed to re-dissolve the residue, utilizing vortex mixing for 2 min. Following centrifugation at 14,000 rpm for 10 min, the supernatant was subsequently injected into the HPLC-MS system for analysis.
Stereoselective chromatographic analysis of farrerol enantiomers was conducted utilizing an ACQUITY UPLC I-Class UPLC system (Waters, Milford, MA, USA), which is equipped with a quaternary pump and an autosampler. The chiral separation was carried out employing a Chiralpak OJ-RH column (250 mm × 4.6 mm, 5 μm), which was obtained from Daicel Chemical Industries (Shanghai, China). The mobile phase consisted of ACN-H2O (60:40, v/v), and the constant flow rate was 0.5 mL/min. The column temperature was set at 25 °C, and the injection volume was 10 μL.
Mass detection was conducted using a triple quadrupole mass spectrometer (Waters Co., USA) equipped with an electrospray ionization (ESI) source. The detection of enantiomers and internal standards (IS) was carried out in multiple reaction monitoring (MRM) mode utilizing negative ionization. The m/z 299→179 for enantiomers and m/z 267→252 for IS were selected as detecting ions for quantitation. The collision energies (CE) were established at 22 eV and 20 eV, respectively. The primary mass spectrometry (MS) parameters were configured as follows: capillary voltage was set to 3.5 kV, ion source temperature was maintained at 150 °C, desolvation gas flow rate was 800 L/h, and the cone voltage (CV) was adjusted to 1.3 V.
Pharmacokinetic analysis was conducted utilizing the Drug and Statistics (DAS) 2.0 software provided by the Chinese Pharmacological Society. To assess the differences in pharmacokinetic parameters, the IC50 values of the evaluated CYP enzymes and the permeability coefficients between the two farrerol enantiomers, paired sample t-tests and independent sample t-tests were performed. Statistical significance was defined as * p < 0.05 and ** p < 0.01. All results are presented as mean values ± standard deviation (SD).

[1] = Sprague-Dawley, rat, plasma, po, 75 mg/kg, i.g. of the single enantiomer (75 mg/kg)
[2] = i.g. of farrerol racemate (75 mg/kg)
[3] = i.g. of farrerol racemate (150 mg/kg)
[4] = i.g. of the single enantiomer (75 mg/kg)
[5] = i.v. of farrerol racemate (4 mg/kg)
[6] = Sprague-Dawley, rat, plasma, iv, 4 mg/kg, i.v. of farrerol racemate (4 mg/kg)
[7] = Sprague-Dawley, rat, plasma, po, 150 mg/kg, i.g. of farrerol racemate (150 mg/kg)
[8] = oral 75 mg/kg farrerol racemate

Cc1c(O)c(C)c2c(c1O)C(=O)CC(c1ccc(O)cc1)O2 (single isomer, unassigned; (-)) [(−)-farrerol, 2,3-dihydro-5,7-dihydroxy-2-(4-hydroxyphenyl)-6,8-dimethyl-4-benzopyrone]
half-life [1]: 12 ± 0.5 h
MRT last [1]: 10.8 ± 0.47 h
AUC(0–t) [2]: 428.3 ± 88.2 ** ng/mL*h
AUC(0–∞) [2]: 1341.8 ± 337.6 ** ng/mL*h
Cmax [2]: 80.5 ± 7.5 ** ng/mL
F [2]: 2.3 ± 0.05 ** %
MRT(0–t) [2]: 5.61 ± 0.56 h
Tmax [2]: 1.00 * h
t1/2 [2]: 8.5 ± 1.5 ** h
AUC(0–t) [3]: 1622.6 ± 84.3 ** ng/mL*h
AUC(0–∞) [3]: 1837.8 ± 226.9 ** ng/mL*h
Cmax [3]: 390.0 ± 35.3 * ng/mL
F [3]: 4.3 ± 0.7 * %
MRT(0–t) [3]: 4.65 ± 0.06 h
Tmax [3]: 1.50 h
t1/2 [3]: 3.5 ± 0.4 ** h
AUC(0–t) [4]: 6746.8 ± 298.7 ng·h/mL
AUC(0–∞) [4]: 8572.4 ± 221.0 ng·h/mL
Cmax [4]: 520.9 ± 91.7 ng/mL
Tmax [4]: 2.00 ^# h
AUC(0–t) [5]: 1012.4 ± 88.1 ** ng/mL*h
AUC(0–∞) [5]: 1195.7 ± 49.7 ** ng/mL*h
Cmax [5]: 1695.0 ± 224.6 ** ng/mL
MRT(0–t) [5]: 3.48 ± 0.07 * h
Tmax [5]: 0.08 h
t1/2 [5]: 19.0 ± 3.7 * h
chiral transformation between enantiomers: no chiral transformation

Cc1c(O)c(C)c2c(c1O)C(=O)CC(c1ccc(O)cc1)O2 (single isomer, unassigned; (+)) [(+)-farrerol, 2,3-dihydro-5,7-dihydroxy-2-(4-hydroxyphenyl)-6,8-dimethyl-4-benzopyrone]
AUC(0-inf) [6]: 1550 ± 56 ng·h/mL
AUC(0-t) [6]: 1460 ± 54.5 ng·h/mL
half-life [6]: 10.7 ± 0.1 h
Cmax (Sprague-Dawley, rat, plasma, iv, 4 mg/kg, i.v. of farrerol racemate (4 mg/kg), read-out: Cmax): 2660 ng/mL
MRT last [6]: 2.7 ± 0.1 h
Tmax (Sprague-Dawley, rat, plasma, iv, 4 mg/kg, i.v. of farrerol racemate (4 mg/kg), read-out: Tmax): 0.08 h
MRT last (Sprague-Dawley, rat, plasma, po, 75 mg/kg, i.g. of farrerol racemate (75 mg/kg)): 6.27 ± 0.27 h
bioavailability [7]: 6.4 ± 0.04%
Cmax (Sprague-Dawley, rat, plasma, po, 150 mg/kg, i.g. of farrerol racemate (150 mg/kg), read-out: Cmax): 457 ± 24.6 ng/mL
MRT last [7]: 5.98 ± 0.14 h
Tmax (Sprague-Dawley, rat, plasma, po, 150 mg/kg, i.g. of farrerol racemate (150 mg/kg), read-out: Tmax): 1.5 h
AUC(0–t) [2]: 2399 ng·h/mL and 2399.1 ± 102.3 ng·h/mL
AUC(0–∞) [2]: 6870.3 ± 511.4 ng·h/mL
Cmax [2]: 287.0 ± 24.6 ng/mL
F [2]: 8.7 ± 0.7%
Tmax [2]: 3.00 h
t1/2 [2]: 19.2 ± 2.0 ** h
AUC(0–t) [3]: 3522.6 ± 146.0 ng·h/mL
AUC(0–∞) [3]: 13,885.5 ± 2550.4 ng/mL*h
t1/2 [3]: 22.9 ± 2.6 h
AUC(0–∞) [4]: 22,122.4 ± 1894.1 ng/mL*h
Cmax [4]: 1177.4 ± 84.5 ng/mL
MRT(0–t) [4]: 9.12 ± 0.18 h
Tmax [4]: 5.00 h
t1/2 [4]: 10.4 ± 0.4 h
Cmax [5]: 2662.7 ± 226.4 ng/mL
AUC0–t of (+)-farrerol relative to (−)-farrerol [8]: ~5.6 fold
Cmax of (+)-farrerol relative to (−)-farrerol [8]: about 3.5 fold
AUC0–t of (+)-farrerol relative to (−)-farrerol (oral 75 mg/kg of single enantiomers): ~2.61 fold
chiral transformation between enantiomers: no chiral transformation

— article PMC12073438, “Stereoselectivity of In Vivo Processes and Bioactivity of Farrerol Enantiomers” (Molecules, 2025)
